Data reported in ChEMBL document CHEMBL3352194, “The discovery of benzenesulfonamide-based potent and selective inhibitors of voltage-gated sodium channel Na(v)1.7” (Bioorg Med Chem Lett, 2014).

Experiments:
[1] = target: Sodium channel protein type 9 subunit alpha (Homo sapiens, UniProt Q15858); assay: Inhibition of human Nav1.7 expressed in HEK cells assessed as reduction in sodium current at -60 mV holding potential by PatchXpress platform based whole cell patch clamp electrophysiological assay; parameters: species or system HEK293
[2] = target: T1, Cytochrome P450 3A4 (Homo sapiens, UniProt P08684); assay: (§1) Inhibition of CYP3A4 (unknown origin) using midazolam substrate at 10 uM; format: ADME; details: 10 µM
T1 sequence (P08684 whole entry): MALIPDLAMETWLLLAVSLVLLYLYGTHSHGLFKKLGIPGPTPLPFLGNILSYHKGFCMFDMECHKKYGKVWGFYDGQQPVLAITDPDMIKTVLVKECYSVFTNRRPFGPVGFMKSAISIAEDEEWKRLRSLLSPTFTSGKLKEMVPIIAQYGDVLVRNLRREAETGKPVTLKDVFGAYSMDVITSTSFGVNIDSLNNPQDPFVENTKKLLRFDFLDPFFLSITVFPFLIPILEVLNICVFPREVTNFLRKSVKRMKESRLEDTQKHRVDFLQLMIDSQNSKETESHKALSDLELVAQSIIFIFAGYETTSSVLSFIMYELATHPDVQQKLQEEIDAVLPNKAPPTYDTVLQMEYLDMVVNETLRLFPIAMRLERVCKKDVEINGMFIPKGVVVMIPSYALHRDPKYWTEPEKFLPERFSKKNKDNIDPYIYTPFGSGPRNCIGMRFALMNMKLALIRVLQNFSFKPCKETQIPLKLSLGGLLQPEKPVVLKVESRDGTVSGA

[3] = target: T2, Cytochrome P450 2D6 (Homo sapiens, UniProt P10635); assay: (§2) Inhibition of CYP2D6 (unknown origin) using bufuralol substrate at 10 uM; format: ADME; details: 10 µM
T2 sequence (P10635 whole entry): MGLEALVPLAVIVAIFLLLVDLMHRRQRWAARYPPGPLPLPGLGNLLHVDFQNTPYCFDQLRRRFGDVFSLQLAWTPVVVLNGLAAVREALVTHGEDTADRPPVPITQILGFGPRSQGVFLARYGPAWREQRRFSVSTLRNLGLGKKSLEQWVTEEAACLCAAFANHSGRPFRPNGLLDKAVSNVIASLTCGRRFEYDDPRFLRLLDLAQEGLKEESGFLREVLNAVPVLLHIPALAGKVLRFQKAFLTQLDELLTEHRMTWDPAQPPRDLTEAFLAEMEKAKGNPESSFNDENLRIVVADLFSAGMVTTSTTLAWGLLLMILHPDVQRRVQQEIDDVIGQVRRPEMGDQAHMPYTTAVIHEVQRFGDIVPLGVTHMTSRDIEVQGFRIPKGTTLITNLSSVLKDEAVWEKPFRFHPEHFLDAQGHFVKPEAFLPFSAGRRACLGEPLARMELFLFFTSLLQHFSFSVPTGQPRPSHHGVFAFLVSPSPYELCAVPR

[4] = target: T3, Cytochrome P450 2C19 (Homo sapiens, UniProt P33261); assay: (§3) Inhibition of CYP2C19 (unknown origin) using omeprazole substrate at 10 uM; format: ADME; details: 10 µM
T3 sequence (P33261 whole entry): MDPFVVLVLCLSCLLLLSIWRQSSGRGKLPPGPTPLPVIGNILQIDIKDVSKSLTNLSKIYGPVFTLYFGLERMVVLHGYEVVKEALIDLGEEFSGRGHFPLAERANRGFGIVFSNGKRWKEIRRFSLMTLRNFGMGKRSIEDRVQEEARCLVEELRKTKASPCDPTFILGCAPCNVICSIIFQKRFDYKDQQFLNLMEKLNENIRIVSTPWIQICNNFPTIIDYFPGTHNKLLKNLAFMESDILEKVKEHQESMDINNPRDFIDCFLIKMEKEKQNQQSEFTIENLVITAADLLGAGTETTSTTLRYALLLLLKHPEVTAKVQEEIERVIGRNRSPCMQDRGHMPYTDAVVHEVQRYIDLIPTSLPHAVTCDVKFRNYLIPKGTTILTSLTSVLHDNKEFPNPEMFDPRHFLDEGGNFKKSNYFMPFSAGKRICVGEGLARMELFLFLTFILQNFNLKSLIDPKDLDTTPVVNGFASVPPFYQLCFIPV

[5] = target: T1, Cytochrome P450 3A4; assay: Inhibition of CYP3A4 (unknown origin) using midazolam substrate; format: ADME
[6] = target: T2, Cytochrome P450 2D6; assay: Inhibition of CYP2D6 (unknown origin) using bufuralol substrate; format: ADME
[7] = target: T4, Cytochrome P450 2C9 (Homo sapiens, UniProt P11712); assay: Inhibition of CYP2C9 (unknown origin) using diclofenac substrate; format: ADME
T4 sequence (P11712 whole entry): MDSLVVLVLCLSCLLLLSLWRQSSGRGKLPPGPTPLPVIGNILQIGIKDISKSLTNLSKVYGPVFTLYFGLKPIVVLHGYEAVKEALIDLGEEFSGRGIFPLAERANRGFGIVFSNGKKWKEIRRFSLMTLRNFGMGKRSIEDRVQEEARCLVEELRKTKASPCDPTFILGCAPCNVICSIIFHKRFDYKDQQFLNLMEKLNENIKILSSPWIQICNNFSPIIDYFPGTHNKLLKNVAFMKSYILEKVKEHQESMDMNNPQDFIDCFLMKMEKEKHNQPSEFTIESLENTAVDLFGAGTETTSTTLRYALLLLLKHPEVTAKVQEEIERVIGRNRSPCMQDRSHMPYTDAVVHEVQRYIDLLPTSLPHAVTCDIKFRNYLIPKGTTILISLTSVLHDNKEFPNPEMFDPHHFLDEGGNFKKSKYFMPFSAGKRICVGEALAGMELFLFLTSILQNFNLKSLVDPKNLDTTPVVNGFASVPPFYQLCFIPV

[8] = target: T3, Cytochrome P450 2C19; assay: Inhibition of CYP2C19 (unknown origin) using omeprazole substrate; format: ADME
[9] = target: Sodium channel protein type 5 subunit alpha (Homo sapiens, UniProt Q14524); assay: Inhibition of human Nav1.5 expressed in HEK cells assessed as reduction in sodium current at -60 mV holding potential by PatchXpress platform based whole cell patch clamp electrophysiological assay; parameters: species or system HEK293
Chain of Sodium channel protein type 5 subunit alpha (Q14524 whole entry): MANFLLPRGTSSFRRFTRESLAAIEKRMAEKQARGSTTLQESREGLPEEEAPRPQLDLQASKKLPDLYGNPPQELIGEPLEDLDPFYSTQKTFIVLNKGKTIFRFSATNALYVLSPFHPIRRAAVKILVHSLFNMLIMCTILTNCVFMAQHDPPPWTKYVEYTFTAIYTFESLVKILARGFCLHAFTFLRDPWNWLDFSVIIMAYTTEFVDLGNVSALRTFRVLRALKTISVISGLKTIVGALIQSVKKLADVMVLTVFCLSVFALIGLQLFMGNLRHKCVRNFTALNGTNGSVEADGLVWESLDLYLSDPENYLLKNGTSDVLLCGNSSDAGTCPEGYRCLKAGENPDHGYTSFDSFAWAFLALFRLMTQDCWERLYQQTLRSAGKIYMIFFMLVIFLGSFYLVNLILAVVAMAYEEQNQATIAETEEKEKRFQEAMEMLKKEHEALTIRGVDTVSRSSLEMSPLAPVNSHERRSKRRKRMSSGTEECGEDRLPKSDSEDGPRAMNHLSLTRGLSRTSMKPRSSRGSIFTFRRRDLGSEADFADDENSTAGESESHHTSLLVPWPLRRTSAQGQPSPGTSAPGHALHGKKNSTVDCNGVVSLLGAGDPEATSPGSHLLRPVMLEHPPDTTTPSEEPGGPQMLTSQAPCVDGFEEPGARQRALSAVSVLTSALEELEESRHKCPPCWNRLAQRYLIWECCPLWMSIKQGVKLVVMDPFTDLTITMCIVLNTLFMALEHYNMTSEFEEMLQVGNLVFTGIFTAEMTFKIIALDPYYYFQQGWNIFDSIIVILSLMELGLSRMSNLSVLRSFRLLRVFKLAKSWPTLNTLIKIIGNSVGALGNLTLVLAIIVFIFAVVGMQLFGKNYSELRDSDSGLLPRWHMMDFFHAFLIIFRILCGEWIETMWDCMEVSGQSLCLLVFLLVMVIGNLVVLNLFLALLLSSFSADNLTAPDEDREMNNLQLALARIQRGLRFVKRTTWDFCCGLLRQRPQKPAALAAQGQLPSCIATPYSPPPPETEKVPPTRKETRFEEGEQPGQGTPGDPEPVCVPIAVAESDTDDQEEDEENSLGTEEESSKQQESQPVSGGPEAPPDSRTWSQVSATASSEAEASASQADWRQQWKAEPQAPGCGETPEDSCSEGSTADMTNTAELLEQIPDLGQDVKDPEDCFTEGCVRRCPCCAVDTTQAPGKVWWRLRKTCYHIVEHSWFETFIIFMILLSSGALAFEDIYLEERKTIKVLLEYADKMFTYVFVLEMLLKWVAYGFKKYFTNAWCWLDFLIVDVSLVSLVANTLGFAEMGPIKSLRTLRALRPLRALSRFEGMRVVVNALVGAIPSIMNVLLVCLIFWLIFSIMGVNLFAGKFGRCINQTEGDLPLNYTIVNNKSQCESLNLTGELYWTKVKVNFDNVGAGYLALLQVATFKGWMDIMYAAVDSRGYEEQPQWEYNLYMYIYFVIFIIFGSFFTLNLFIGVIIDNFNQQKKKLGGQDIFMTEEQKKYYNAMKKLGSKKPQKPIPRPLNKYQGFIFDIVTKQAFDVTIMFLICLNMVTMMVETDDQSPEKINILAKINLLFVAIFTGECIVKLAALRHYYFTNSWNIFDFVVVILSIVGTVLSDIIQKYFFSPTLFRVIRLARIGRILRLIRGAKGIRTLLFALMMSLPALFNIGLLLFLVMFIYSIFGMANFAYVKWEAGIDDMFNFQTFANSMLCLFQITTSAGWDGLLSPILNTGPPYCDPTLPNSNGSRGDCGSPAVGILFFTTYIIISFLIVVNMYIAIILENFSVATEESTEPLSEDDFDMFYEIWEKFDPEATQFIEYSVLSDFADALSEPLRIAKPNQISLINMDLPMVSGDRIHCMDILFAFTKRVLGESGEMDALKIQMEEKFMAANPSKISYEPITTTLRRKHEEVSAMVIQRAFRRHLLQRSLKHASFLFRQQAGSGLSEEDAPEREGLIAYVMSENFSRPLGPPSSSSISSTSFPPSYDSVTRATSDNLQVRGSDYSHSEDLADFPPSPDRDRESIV

[10] = target: CYP3A4 (Homo sapiens, UniProt P08684); assay: as §1; format: ADME; details: probe midazolam
Chain of CYP3A4 (P08684 whole entry): as the sequence (P08684 whole entry) above

[11] = target: CYP2D6 (Homo sapiens, UniProt P10635); assay: as §2; format: ADME; details: probe bufuralol
Chain of CYP2D6 (P10635 whole entry): as the sequence (P10635 whole entry) above

[12] = target: CYP2C9 (Homo sapiens, UniProt P11712); assay: (§4) Inhibition of CYP2C9 (unknown origin) using diclofenac substrate at 10 uM; format: ADME; details: probe diclofenac
Chain of CYP2C9 (P11712 whole entry): as the sequence (P11712 whole entry) above

[13] = target: CYP2C19 (Homo sapiens, UniProt P33261); assay: as §3; format: ADME; details: probe omeprazole
Chain of CYP2C19 (P33261 whole entry): as the sequence (P33261 whole entry) above

[14] = target: T4, Cytochrome P450 2C9; assay: as §4; format: ADME; details: 10 µM
[15] = organism: Homo sapiens; assay: Selectivity index, ratio of IC50 for human Nav1.5 to IC50 for human Nav1.7

| SMILES | IC50 [1] [nM] | IC50 [9] [nM] | inhibition at 10 µM [10] [%] | inhibition at 10 µM [11] [%] | inhibition at 10 µM [12] [%] | inhibition at 10 µM [13] [%] | also measured |
| --- | --- | --- | --- | --- | --- | --- | --- |
| O=S(=O)(Nc1ncns1)c1cc(F)c(OC[C@@H]2CNCC[C@H]2c2ccc(Cl)cc2)cc1F | 59 | – | – | – | – | – | inhibition (INH) [2]: 96%; inhibition (INH) [3]: 82%; inhibition (INH) [4]: 84% |
| O=S(=O)(Nc1ncns1)c1cc(F)c(OC[C@H]2CNCC[C@H]2c2ccc(Cl)cc2)cc1F | 237 | – | – | – | – | – | – |
| O=S(=O)(Nc1ncns1)c1cc(F)c(OC[C@H]2CNCC[C@@H]2c2ccc(Cl)cc2)cc1F | – | – | – | – | – | – | IC50 [5]: 150 nM; IC50 [6]: 260 nM; IC50 [7]: 630 nM; IC50 [8]: > 10000 nM |
| O=S(=O)(Nc1ncns1)c1cc(F)c(OCC2(F)CNCCC2c2ccc(F)cc2)cc1F (stereo not given) | – | > 10000 | 94 | 78 | 99 | 71 | – |
| CN1CC[C@@H](c2ccc(Cl)cc2)[C@H](COc2cc(F)c(S(=O)(=O)Nc3ncns3)cc2F)C1 | – | – | – | – | – | – | IC50 ([9]; hek293): > 10000 nM; inhibition (INH) [2]: 96%; inhibition (INH) [3]: 69%; inhibition (INH) [14]: 93%; inhibition (INH) [4]: 71% |
| CN1CC[C@H](c2ccc(Cl)cc2)[C@@H](COc2cc(F)c(S(=O)(=O)Nc3ncns3)cc2F)C1 | 4 | > 10000 | – | – | – | – | IC50 [5]: 140 nM; IC50 [6]: 270 nM; IC50 [7]: 880 nM; IC50 [8]: > 10000 nM |
| O=S(=O)(Nc1ncns1)c1cc(F)c(OC[C@@H]2CN(CCF)CC[C@H]2c2ccc(Cl)cc2)cc1F | 7 | > 10000 | 98 | 90 | 97 | 96 | – |
| O=S(=O)(Nc1ncc(F)cn1)c1cc(F)c(OC[C@H]2CNCC[C@@H]2c2ccc(Cl)cc2)cc1F | – | > 10000 | – | – | – | – | IC50 [5]: > 10000 nM; IC50 [6]: > 10000 nM; IC50 [7]: > 10000 nM; IC50 [8]: > 10000 nM |
| O=S(=O)(Nc1ncns1)c1cc(F)c(OC[C@@H]2CNCC[C@H]2c2ccc(Cl)cc2)cc1F (racemic) | – | – | 94 | 93 | 100 | 75 | – |
| O=S(=O)(Nc1ncns1)c1cc(F)c(OC[C@@H]2CNCC[C@H]2c2ccccc2)cc1F (relative stereo) | 7.9 | > 10000 | 95 | 82 | 81 | 81 | Ratio IC50 [15]: > 1000 |
| O=S(=O)(Nc1ncns1)c1cc(F)c(OC[C@@H]2CNCC[C@H]2c2ccc(F)cc2)cc1F (relative stereo) | 6.8 | > 10000 | 96 | 92 | 100 | 97 | – |
| O=S(=O)(Nc1ncns1)c1cc(F)c(OC[C@H]2CNCC[C@@H]2c2ccc(F)c(F)c2)cc1F (relative stereo) | – | > 10000 | 90 | 85 | 96 | 74 | – |
| O=S(=O)(Nc1ncns1)c1cc(F)c(OC[C@H]2CNCC[C@@H]2c2ccc(Cl)c(F)c2)cc1F (relative stereo) | – | > 10000 | 96 | 85 | 100 | 60 | – |
| Cc1ccc([C@H]2CCNC[C@@H]2COc2cc(F)c(S(=O)(=O)Nc3ncns3)cc2F)cc1 (relative stereo) | 13 | > 10000 | 95 | 81 | 100 | 59 | – |
| O=C1C[C@@H](c2ccc(F)cc2)[C@H](COc2cc(F)c(S(=O)(=O)Nc3ncns3)cc2F)CN1 (relative stereo) | 82 | > 10000 | 95 | 6 | 58 | 64 | – |
| O=S(=O)(Nc1ncns1)c1cc(F)c(OC[C@@H]2CCNC[C@H]2c2ccc(F)cc2)cc1F (relative stereo) | 32 | 5900 | 89 | 61 | 97 | 69 | – |

| SMILES | IC50 [1] [nM] | IC50 [9] [nM] | inhibition at 10 µM [10] [%] | inhibition at 10 µM [11] [%] | inhibition at 10 µM [12] [%] | inhibition at 10 µM [13] [%] | also measured |
| --- | --- | --- | --- | --- | --- | --- | --- |
| O=S(=O)(Nc1ncns1)c1cc(F)c(OC[C@@H]2CNC[C@H]2c2ccc(Cl)cc2)cc1F (relative stereo) | 50 | – | 93 | 97 | 100 | 90 | – |
| O=S(=O)(Nc1ncns1)c1cc(F)c(OC[C@@H]2CCCC[C@H]2c2ccc(Cl)cc2)cc1F (relative stereo) | 280 | 24700 | 99 | 66 | 100 | 95 | – |
| CC(C)(C)OC(=O)N1CC[C@@H](c2ccc(Cl)cc2)[C@H](COc2cc(F)c(S(=O)(=O)Nc3ncns3)cc2F)C1 (relative stereo) | 164 | – | 98 | 78 | 100 | 100 | – |
| CN1CC[C@@H](c2ccc(Cl)cc2)[C@H](COc2cc(F)c(S(=O)(=O)Nc3ncns3)cc2F)C1 (relative stereo) | 11 | > 10000 | 97 | – | 97 | 86 | inhibition (INH) [3]: 93% |
| O=S(=O)(Nc1ncns1)c1cc(F)c(OC[C@@H]2CN(CC(F)F)CC[C@H]2c2ccc(Cl)cc2)cc1F (relative stereo) | 38 | – | 98 | 61 | 100 | 88 | – |
| O=S(=O)(Nc1ncns1)c1cc(F)c(OC[C@@H]2CN(CC(F)(F)F)CC[C@H]2c2ccc(Cl)cc2)cc1F (relative stereo) | 130 | 2600 | 97 | 47 | 100 | 85 | – |
| Cc1nsc(NS(=O)(=O)c2cc(F)c(OC[C@@H]3CNCC[C@H]3c3ccc(Cl)cc3)cc2F)n1 (relative stereo) | 194 | – | 61 | 55 | 100 | 73 | – |
| O=S(=O)(Nc1nncs1)c1cc(F)c(OC[C@@H]2CNCC[C@H]2c2ccc(Cl)cc2)cc1F (relative stereo) | 84 | > 10000 | 30 | 54 | 99 | 35 | – |
| Cc1cnc(NS(=O)(=O)c2cc(F)c(OC[C@@H]3CNCC[C@H]3c3ccc(Cl)cc3)cc2F)s1 (relative stereo) | – | – | 22 | 48 | 99 | 42 | – |
| O=S(=O)(Nc1ncc(Cl)s1)c1cc(F)c(OC[C@@H]2CNCC[C@H]2c2ccc(Cl)cc2)cc1F (relative stereo) | – | – | 11 | 40 | 100 | 20 | – |
| Cc1cc(NS(=O)(=O)c2cc(F)c(OC[C@@H]3CNCC[C@H]3c3ccc(Cl)cc3)cc2F)no1 (relative stereo) | 1890 | – | 24 | 38 | 80 | 29 | – |
| O=S(=O)(Nc1ccc(F)cn1)c1cc(F)c(OC[C@@H]2CNCC[C@H]2c2ccc(Cl)cc2)cc1F (relative stereo) | 71 | > 10000 | 42 | 50 | 99 | 56 | – |
| O=S(=O)(Nc1cccnn1)c1cc(F)c(OC[C@@H]2CNCC[C@H]2c2ccc(Cl)cc2)cc1F (relative stereo) | 171 | – | 13 | 37 | 49 | 36 | – |
| O=S(=O)(Nc1ccncn1)c1cc(F)c(OC[C@@H]2CNCC[C@H]2c2ccc(Cl)cc2)cc1F (relative stereo) | – | > 10000 | 57 | 94 | 91 | 72 | – |
| O=S(=O)(Nc1ncccn1)c1cc(F)c(OC[C@@H]2CNCC[C@H]2c2ccc(Cl)cc2)cc1F (relative stereo) | 53 | > 10000 | 12 | 34 | 60 | 15 | – |
| O=S(=O)(Nc1ncc(F)cn1)c1cc(F)c(OC[C@@H]2CNCC[C@H]2c2ccc(Cl)cc2)cc1F (relative stereo) | – | > 10000 | 25 | 35 | 73 | 26 | – |
